Measured values from BindingDB's records for doi:10.1021/acs.biochem.6b00446 (Avanti Polar Lipids, 2016).
Where “and” joins values, the source holds several entries; their conditions need not be identical. Identical values can stand only once.

What follows are compounds tested against T1, Fatty acid-binding protein, liver (Mus musculus, UniProt P12710) (assay: FABP1 Fluorescent Ligand Displacement Assay).
T1 sequence (P12710 whole entry): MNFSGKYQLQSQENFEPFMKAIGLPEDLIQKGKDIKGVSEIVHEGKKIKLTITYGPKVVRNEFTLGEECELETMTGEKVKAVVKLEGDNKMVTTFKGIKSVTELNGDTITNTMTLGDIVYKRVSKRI
Excerpt: Data were corrected for the following blanks/controls: protein only, fluorescent ligand only, fluorescent ligand with anincreasing amount of nonfluorescent ligand, and photobleaching.
Work on `CCCCC/C=C\C/C=C\C/C=C\C/C=C\CCCC(=O)OC(CO)CO` yielded a Ki of 61 nM. With `CCCCC/C=C\C/C=C\C/C=C\C/C=C\CCCC(=O)Nc1ccc(O)cc1` the Ki was 29 nM. With `C=C(C)[C@@H]1CCC(C)=C[C@H]1c1c(O)cc(CCCCC)cc1O` [2-(6-Isopropenyl-3-methyl-cyclohex-2-enyl)-5-pentyl-benzene-1,3-diol (Cannabidiol)] the Ki was 167 nM. For `CCCCCCCC/C=C\CCCCCCCC(=O)OC(CO)CO` [2-Oleoylmonoglycerol (2-OG)], the Ki was 40 nM. With `CCCCCCCCCCCCCCCC(=O)OC(CO)CO` [2-Palmitoylmonoglycerol (2-PG)] the Ki was 70 nM. `CCCCCCC(C)(C)c1cc(O)c2c(c1)OC(C)(C)[C@@H]1CC=C(CO)C[C@@H]21` [(6aR,10aR)-3-(1,1-dimethyl-heptyl)-9-hydroxymethyl-6,6-dimethyl-6a,7,10,10a-tetrahydro-6H-benzo[c]chromen-1-ol] showed a Ki of 850 nM. `CCCCCc1cc(O)c2c(c1)OC(C)(C)[C@@H]1CCC(C)=C[C@@H]21` [(10R,10aR)-6,6,9-Trimethyl-3-pentyl-6a,7,8,10a-tetrahydro-6H-benzo[c]chromen-1-ol] gave a Ki of 1000 nM. With `CCc1c(-c2ccccc2)c(-c2ccccc2)nn1-c1ccccc1-c1cccc(OCC(=O)O)c1` [((2'-(5-ETHYL-3,4-DIPHENYL-1H-PYRAZOL-1-YL)-3-BIPHENYLYL)OXY)ACETIC ACID] the Ki was 21 nM and 52 nM. `CCCCCCC(C)(C)c1ccc([C@@H]2C[C@H](O)CC[C@H]2CCCO)c(O)c1` [ChEMBL_75020] was tested, and the Ki was 990 nM. `CCC=CCC=CCC=CCC=CCC=CCC=CCCC(=O)NCCO` [Docosahexaenoylethanolamide (DHEA)] gave a Ki of 163 nM. `CCCCCn1cc(C(=O)c2cccc3ccccc23)c2ccccc21` [JWH-018] was tested, and the Ki was 58 nM. `CCCCCCCC/C=C\CCCCCCCC(=O)N[C@H](CO)Cc1ccc(O)cc1` [OMDM1] gave a Ki of 40 nM. In the case of `CCCCCCCC/C=C\CCCCCCCC(=O)N[C@@H](CO)Cc1ccc(O)cc1` [OMDM2], the Ki is reported as 40 nM. For `CCCCCCCC/C=C\CCCCCCCC(=O)NCCO` [Oleamide MEA], the Ki was 43 nM. `CC(=O)Nc1ccc(Nc2nc(-c3ccc(Cl)c(Cl)c3)cs2)cc1` [SCPI1] was tested, and the Ki was 350 nM. `COc1cc([N+](=O)[O-])cc2c1NC(c1ccc(Br)cc1)=NO2` [SCPI3] gave a Ki of 900 nM. Compound `Cc1ccc2c(c1)-c1c(ssc1=S)C(C)(C)N2C(=O)CC(C)C` [SCPI4] has a Ki of 33 nM. Compound `Cc1c(C(=O)NN2CCCCC2)nn(-c2ccc(Cl)cc2Cl)c1-c1ccc(Cl)cc1` [SR141716] has a Ki of 2000 nM. Compound `CCCCCC=CCC=CCC=CCC=CCCCC(=O)Nc1ccc(O)cc1C` [VDM11] has a Ki of 37 nM.
